Data reported in patent US20260035364A1, “BICYCLIC TETRAHYDROTHIAZEPINE DERIVATIVES” (Hoffmann-La Roche Inc., priority 2022, published 2026).
Like-named read-outs stand apart in the source and are kept apart here.

Test system: primary human T-cells
Assay: T-cell proliferation assay (CellTiter-Glo)
Type: cell-based
Settings: CD3 condition; for EC50: proliferation after 5 days, CellTiter-Glo, read-out: Tcell Proliferation CD3 EC50; for Emax: read-out: Emax proliferation (% activation)
Outline: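 Expanded primary human T-cells (100k/well) on plates coated with CD3 antibody or PBS only, given a 5- or 6-point dose response (top 20 or 10 μM final, 3.333-fold steps, 0.2% DMSO). ATP measured by CellTiter-Glo 2.0 luminescence after 5 days. Normalized to DMSO and 20 μM reference A1 (100%); EC50 and Emax reported for CD3 conditions.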

[1] = Homo sapiens, T-cell, 120 h, 5 days, 20 μM reference compound A1 = 100%

| SMILES | Emax proliferation (% activation) (5 days, 20 μM reference compound A1 = 100%) | EC50 | Emax [1] | EC50 (Homo sapiens, T-cell, 120 h) |
| --- | --- | --- | --- | --- |
| CC(C)(c1nc(-c2cc3c(cc2F)[S+]([O-])C[C@H](N)C(=O)N3Cc2ccc(Oc3ccccc3)cc2)no1)S(C)(=O)=O (stereo partly drawn) [Example 52, (3R)-3-amino-8-fluoro-7-[5-(1-methyl-1-methylsulfonyl-ethyl)-1,2,4-oxadiazol-3-yl]-1-oxo-5-[(4-phenoxyphenyl)methyl]-2,3-dihydro-1λ4,5-benzothiazepin-4-one] | 181% | 978 nM |  |  |
| CC(C)(c1nc(-c2cc3c(cc2F)S(=O)(=O)C[C@H](N)C(=O)N3Cc2ccc(C3CCOCC3)cc2)no1)S(C)(=O)=O [Example 53, (3R)-3-amino-8-fluoro-7-[5-(1-methyl-1-methylsulfonyl-ethyl)-1,2,4-oxadiazol-3-yl]-1,1-dioxo-5-[(4-tetrahydropyran-4-ylphenyl)methyl]-2,3-dihydro-1λ6,5-benzothiazepin-4-one] |  |  | 167% | 3190 nM |
| CS(=O)(=O)Cn1nnc(-c2cc3c(cc2F)S(=O)(=O)C[C@H](N)C(=O)N3Cc2ccc(Oc3ccccc3)cc2)n1 [Example 54, (3R)-3-amino-8-fluoro-7-[2-(methylsulfonylmethyl)tetrazol-5-yl]-1,1-dioxo-5-[(4-phenoxyphenyl)methyl]-2,3-dihydro-1λ6,5-benzothiazepin-4-one] |  |  | 310% | 1540 nM |
| CS(=O)(=O)Cn1nnnc1-c1cc2c(cc1F)S(=O)(=O)C[C@H](N)C(=O)N2Cc1ccc(Oc2ccccc2)cc1 [Example 55, (3R)-3-amino-8-fluoro-7-[1-(methylsulfonyl-methyl)tetrazol-5-yl]-1,1-dioxo-5-[(4-phenoxyphenyl)methyl]-2,3-dihydro-1λ6,5-benzothiazepin-4-one] |  |  | 310% | 1150 nM |
| CC1(c2nnc(-c3ccc4c(c3)N(Cc3ccc(Oc5ccccc5)cc3)C(=O)[C@@H](N)CS4(=O)=O)o2)CCCS1(=O)=O (stereo partly drawn) [Example 58, (3R)-3-amino-7-[5-(2-methyl-1,1-dioxo-thiolan-2-yl)-1,3,4-oxadiazol-2-yl]-1,1-dioxo-5-[(4-phenoxyphenyl)methyl]-2,3-dihydro-1λ6,5-benzothiazepin-4-one] |  |  | 112% | 1100 nM |
| CC(C)(c1nc(-c2cc3c(cc2F)S(=O)(=O)C[C@H](N)C(=O)N3Cc2ccc(OCc3nc(C(F)(F)F)no3)cc2)no1)S(C)(=O)=O [Example 59, (3R)-3-amino-8-fluoro-7-[5-(1-methyl-1-methylsulfonyl-ethyl)-1,2,4-oxadiazol-3-yl]-1,1-dioxo-5-[[4-[[3-(trifluoromethyl)-1,2,4-oxadiazol-5-yl]methoxy]phenyl]methyl]-2,3-dihydro-1λ6,5-benzothiazepin-4-one] |  |  | 185% | 1120 nM |
| CC(C)(c1nnc(-c2ccc3c(c2)N(Cc2ccc(Oc4cccc(Br)c4)cc2)C(=O)[C@@H](N)CS3(=O)=O)o1)S(C)(=O)=O [Example 60, (3R)-3-amino-5-[[4-(3-bromophenoxy)phenyl]methyl]-7-[5-(1-methyl-1-methylsulfonyl-ethyl)-1,3,4-oxadiazol-2-yl]-1,1-dioxo-2,3-dihydro-1λ6,5-benzothiazepin-4-one] |  |  | 119% | 660 nM |
| CC(C)(c1nnc(-c2ccc3c(c2)N(Cc2ccc(Oc4ccccc4)cc2)C(=O)[C@@H](N)CS3(=O)=O)o1)S(=O)(=O)C1CC1 [Example 61, (3R)-3-amino-7-[5-(1-cyclopropylsulfonyl-1-methyl-ethyl)-1,3,4-oxadiazol-2-yl]-1,1-dioxo-5-[(4-phenoxyphenyl)methyl]-2,3-dihydro-1λ6,5-benzothiazepin-4-one] |  |  | 58% | 4560 nM |
| COCC(C)(C)Oc1ccc(CN2C(=O)[C@@H](N)CS(=O)(=O)c3cc(F)c(-c4noc(C(C)(C)S(C)(=O)=O)n4)cc32)cc1 [Example 62, (3R)-3-amino-8-fluoro-5-[[4-(2-methoxy-1,1-dimethyl-ethoxy)phenyl]methyl]-7-[5-(1-methyl-1-methylsulfonyl-ethyl)-1,2,4-oxadiazol-3-yl]-1,1-dioxo-2,3-dihydro-benzothiazepin-4-one] |  |  | 188% | 1390 nM |
| COc1ccc(-c2ccc(CN3C(=O)[C@@H](N)CS(=O)(=O)c4ccc(-c5noc(C(C)(C)S(C)(=O)=O)n5)cc43)cc2)cc1 [Example 63, (3R)-3-amino-5-[[4-(4-methoxyphenyl)phenyl]methyl]-7-[5-(1-methyl-1-methylsulfonyl-ethyl)-1,2,4-oxadiazol-3-yl]-1,1-dioxo-2,3-dihydro-1λ6,5-benzothiazepin-4-one] |  |  | 98% | 92 nM |
| CC(C)(c1nnc(-c2ccc3c(c2)N(Cc2ccc(OC(F)(F)F)cc2)C(=O)[C@@H](N)CS3(=O)=O)o1)S(C)(=O)=O [Example 64, (3R)-3-amino-7-[5-(1-methyl-1-methylsulfonyl-ethyl)-1,3,4-oxadiazol-2-yl]-1,1-dioxo-5-[[4-(trifluoromethoxy)phenyl]methyl]-2,3-dihydro-126,5-benzothiazepin-4-one] |  |  | 98% | 6170 nM |
| CN(C)S(=O)(=O)C(C)(C)c1nnc(-c2ccc3c(c2)N(Cc2ccc(-c4ccc(C(F)(F)F)cc4)cc2)C(=O)[C@@H](N)CS3(=O)=O)o1 [Example 65, 2-[5-[(3R)-3-amino-1,1,4-trioxo-5-[[4-[4-(trifluoromethyl)phenyl]phenyl]methyl]-2,3-dihydro-1λ6,5-benzothiazepin-7-yl]-1,3,4-oxadiazol-2-yl]-N,N-dimethyl-propane-2-sulfonamide] |  |  | 155% | 2620 nM |
| CS(=O)(=O)C1(c2nnc(-c3ccc4c(c3)N(Cc3ccc(Oc5ccccc5)cc3)C(=O)[C@@H](N)CS4(=O)=O)o2)CC1 [Example 66, (3R)-3-amino-7-[5-(1-methylsulfonylcyclopropyl)-1,3,4-oxadiazol-2-yl]-1,1-dioxo-5-[(4-phenoxyphenyl)methyl]-2,3-dihydro-1λ6,5-benzothiazepin-4-one] |  |  | 144% | 2170 nM |
| CC(C)(c1nnc(-c2ccc3c(c2)N(Cc2ccc(-c4ccc(C(F)(F)F)cc4)cc2)C(=O)[C@@H](N)CS3(=O)=O)o1)S(=O)(=O)N1CCCC1 [Example 67, (3R)-3-amino-7-[5-(1-methyl-1-pyrrolidin-1-ylsulfonyl-ethyl)-1,3,4-oxadiazol-2-yl]-1,1-dioxo-5-[[4-[4-(trifluoromethyl)phenyl]phenyl]methyl]-2,3-dihydro-1λ6,5-benzothiazepin-4-one] |  |  | 142% | 5510 nM |
| CS(=O)(=O)C1(c2nnc(-c3ccc4c(c3)N(Cc3ccc(Oc5ccccc5)cc3)C(=O)[C@@H](N)CS4(=O)=O)o2)CCC1 [Example 68, (3R)-3-amino-7-[5-(1-methylsulfonylcyclobutyl)-1,3,4-oxadiazol-2-yl]-1,1-dioxo-5-[(4-phenoxyphenyl)methyl]-2,3-dihydro-1λ6,5-benzothiazepin-4-one] |  |  | 83% | 2290 nM |
| CC(C)(c1nnc(-c2ccc3c(c2)N(Cc2ccc(-c4ccc(OC(F)(F)F)cn4)cc2)C(=O)[C@@H](N)CS3(=O)=O)o1)S(C)(=O)=O [Example 69, (3R)-3-amino-1,1-diketo-7-[5-(1-mesyl-1-methyl-ethyl)-1,3,4-oxadiazol-2-yl]-5-[4-[5-(trifluoromethoxy)-2-pyridyl]benzyl]-2,3-dihydro-1λ6,5-benzothiazepin-4-one] |  |  | 91% | 31 nM |
